Reference: patent US11584763B2, “Chromenopyridine derivatives as phosphatidylinositol phosphate kinase inhibitors” (HIBERCELL, INC., priority 2017, dated 2023)

Columns and labels:
[1] = target: T1, PIP4K2B (Homo sapiens, UniProt P78356); assay: Trans-FI P kinase assay PIP4K2B (PIP4KtypeIIB inhibition assay); format: biochemical; settings: compounds listed under IC50 bin headings; 100 uM GTP; read-out: Trans-FI P kinase assays: PIP4K2B IC50
T1 construct: made in house; host or cells: E. coli
T1 sequence (P78356 1-416): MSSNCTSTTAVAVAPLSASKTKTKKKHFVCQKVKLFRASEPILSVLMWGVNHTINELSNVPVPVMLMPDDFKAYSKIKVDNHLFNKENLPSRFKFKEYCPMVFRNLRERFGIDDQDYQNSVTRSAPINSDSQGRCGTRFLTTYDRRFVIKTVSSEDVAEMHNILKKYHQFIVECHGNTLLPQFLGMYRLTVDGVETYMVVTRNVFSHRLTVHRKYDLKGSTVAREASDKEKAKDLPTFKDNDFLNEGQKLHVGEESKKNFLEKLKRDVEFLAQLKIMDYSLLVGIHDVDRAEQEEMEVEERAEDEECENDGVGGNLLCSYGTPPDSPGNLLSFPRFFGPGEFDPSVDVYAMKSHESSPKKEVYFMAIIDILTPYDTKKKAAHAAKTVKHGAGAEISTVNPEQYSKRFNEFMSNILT
Excerpt: GST tagged PIP4KtypeIIA and B enzymes were overexpressed in E. Coli and purified to >80% homogeneity. Phosphatidyl inositol-5-phosphate (PI5P, Cat. #850152, Avanti Polar Lipids Inc.) was used as the lipid substrate and phosphatidyl ethanolamine (DOPE 18:1, Cat. #850725, Avanti Polar Lipids Inc.) was used as the carrier lipid for assays. Ultrapure ATP and GTP was purchased from Bellbrooke Labs. ADP Glo reagents were obtained from Promega. Transcreener FI reagent was obtained from Bellbrooke labs.
GST-tagged PIP4KtypeIIB (3.4 uL, 2.77 mg/mL) was diluted to 5 mL using HNE buffer to yield 5× enzyme stock (25 nM)
Lipid Preparation: In a 10 mL pyrex glass vial, 1 ug of PI5P and 1 ug of DOPE were suspended in 2.5 mL of HEPES buffer mix and 2.5 mL of H:E buffer. The contents were mixed and sonicated for 3 min to yield a translucent lipid stock.
Compound Preparation: Compounds were stored as 5 mM stocks in neat DMSO as room temperature in glass vials. 5 mM stocks were diluted to 2 mM and then serially diluted (3×) in neat DMSO in 96 well polypropylene plates. From the serially diluted stocks, 3 uL was delivered into 250 uL of 25% DMSO (in water) to generate 5× compound stocks. Typically, the highest compound conc. was 24 uM.
The assay volume was kept at 25 uL. To each well of the reaction plate, 10 uL of lipid stock (1:1 ratio PI5P:DOPE) was delivered. This was followed by the addition of 5 uL of compound in 25% DMSO. Then, to each well, 5 uL of 25 nM (5×) typeIIB enzyme was delivered. The contents were mixed well and incubated for 1 h at 27 C. After 1 h, reaction was initiated by adding 5 uL of 500 uM GTP and the contents were mixed well with a multi-channel pipetteman. The final concentration of the reagents are as follows: 50 mM HEPES, pH 7.3, 10 mM MgCl2, 20 mM NaCl, 0.01% v/v triton-X100, 5% DMSO, 100 uM GTP, 80 uM (2 ug) PI5P, 2 ug DOPE, and 5 nM PIP4KIIB Typically, the highest conc. of compounds was 4.8 uM and the lowest conc. was 0.
After 2 h, the reaction was quenched by adding 25 uL of transcreener FI reagent. The contents were incubated at RT for 1 h and the Fluorescence (Ex: 584 Em: 623) was read using Molecular Devices Paradigm plate reader. […] The blanks were averaged and subtracted from all other wells. Using a calibration curve, RFU was converted to uM GDP (product). IC50 was calculated by plotting the residual activity (expressed as % No inhibitor control) vs. log [Inh. conc.]

[2] = target: T2, PIP4K 2A (Homo sapiens, UniProt P48426); assay: ADP-glo kinase assay PIP4K 2A; format: biochemical; design: 4 nM PIP4K2A (full length protein, SignalChem); purchased SignalChem; settings: compounds listed under IC50 bin headings
T2 sequence (P48426 1-406): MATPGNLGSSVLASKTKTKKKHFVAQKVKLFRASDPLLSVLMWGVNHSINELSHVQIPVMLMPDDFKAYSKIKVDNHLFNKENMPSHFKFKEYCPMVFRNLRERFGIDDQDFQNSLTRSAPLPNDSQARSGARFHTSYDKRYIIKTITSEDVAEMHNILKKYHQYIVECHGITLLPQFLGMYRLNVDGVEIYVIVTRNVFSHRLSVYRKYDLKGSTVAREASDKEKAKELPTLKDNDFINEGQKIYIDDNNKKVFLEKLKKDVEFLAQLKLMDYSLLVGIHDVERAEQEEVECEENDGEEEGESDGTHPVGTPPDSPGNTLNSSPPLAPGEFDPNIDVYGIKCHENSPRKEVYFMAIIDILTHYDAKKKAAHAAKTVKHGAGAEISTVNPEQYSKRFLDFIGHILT
Method: Dilution series of the compounds were prepared in DMSO at 100 times the final assay concentration (n1=n0/3 in 10 points). The compounds were further diluted to three times the assay concentration in assay buffer (20 mM MOPS pH 7.2, 25 mM magnesium chloride, 0.005% Tween 20). 6 μL of the diluted compounds were added to a 384 well assay plate followed by 9 μL of a mix consisting of 4 nM PIP4K2A (full length protein, SignalChem) and 100 μM PI(5)P diC8 (Tebu-Bio). Enzyme and compounds were pre-incubated at room temperature for 15 minutes.
Then 3 μL of a solution containing 60 μM ATP (Promega) in assay buffer was added to the wells containing compound and enzyme and mixing was performed by pipetting several times. The reaction was incubated at room temperature for 1 h. Then 18 μL of ADP-Glo™ Reagent (Promega) was added to stop the kinase reaction and deplete the unconsumed ATP, mixing was performed by pipetting several times. The plate was incubated at room temperature for 40 minutes before addition of 36 μL of Kinase Detection Reagent (Promega) to convert ADP to ATP and introduce luciferase and luciferin to detect ATP. The reaction was incubated at room temperature for 40 minutes before the luminescence was measured in a in a Victor 3V 1420 multilabel counter (Perkin Elmer).
Percent inhibition of the compounds as compared to dimethyl sulfoxide treated control samples was calculated. Compound concentration versus percent inhibition were fitted to generate IC50 values.

IC50 [1] | IC50 [2] | SMILES
1 to 10 nM | ≤ 1 nM | CC1Oc2cc(N3CCCC3=O)ccc2-c2cnc(Nc3cncc(NC(=O)c4cnc5ccccn45)c3)cc21 (centres unmarked) [Example 143, N-(5-((5-methyl-8-(2-oxopyrrolidin-1-yl)-5H-chromeno[4,3-c]pyridin-3-yl)amino)pyridin-3-yl)imidazo[1,2-a]pyridine-3-carboxamide]
10 to 100 nM | 1 to 10 nM | CC1Oc2cc(N3CCCC3=O)ccc2-c2cnc(Nc3cncc(NC(=O)CCC(=O)O)c3)cc21 (centres unmarked) [Example 105, 4-((5-((5-methyl-8-(2-oxopyrrolidin-1-yl)-5H-chromeno[4,3-c]pyridin-3-yl)amino)pyridin-3-yl)amino)-4-oxobutanoic acid]
1 to 10 nM | ≤ 1 nM | CC1Oc2cc(N3CCCC3=O)ccc2-c2cnc(Nc3cnc4c(c3)N3C(=O)C(C)(C)C[C@H]3CO4)cc21 (stereo partly drawn) [Example 156, (6aS)-8,8-dimethyl-2-((5-methyl-8-(2-oxopyrrolidin-1-yl)-5H-chromeno[4,3-c]pyridin-3-yl)amino)-6,6a,7,8-tetrahydro-9H-pyrido[2,3-b]pyrrolo[1,2-d][1,4]oxazin-9-one]
10 to 100 nM | 1 to 10 nM | CC(=O)Nc1cc(Nc2cc3c(cn2)-c2ccc(N4CCCC4=O)cc2OC3C)cnn1 (centres unmarked) [Example 129, N-(5-((5-methyl-8-(2-oxopyrrolidin-1-yl)-5H-chromeno[4,3-c]pyridin-3-yl)amino)pyridazin-3-yl)acetamide]
10 to 100 nM | 1 to 10 nM | CC(Cc1ccccc1)C(=O)Nc1cncc(Nc2cc3c(cn2)-c2ccc(N4CCCC4=O)cc2OC3C)c1 (centres unmarked) [Example 133, 2-methyl-N-(5-((5-methyl-8-(2-oxopyrrolidin-1-yl)-5H-chromeno[4,3-c]pyridin-3-yl)amino)pyridin-3-yl)-3-phenylpropanamide]
10 to 100 nM | ≤ 1 nM | CC1Oc2cc(N3CCCC3=O)ccc2-c2cnc(Nc3cncc(NC(=O)c4ccc5c(c4)COB5O)c3)cc21 (centres unmarked) [Example 116, 1-hydroxy-N-(5-((5-methyl-8-(2-oxopyrrolidin-1-yl)-5H-chromeno[4,3-c]pyridin-3-yl)amino)pyridin-3-yl)-1,3-dihydrobenzo[c][1,2]oxaborole-5-carboxamide]
1 to 10 nM | 1 to 10 nM | CC1(C)Oc2cc(N3CCCC3=O)ccc2-c2cnc(Nc3cnc4c(c3)N3C(=O)CC[C@@H]3CO4)cc21 [Example 183, (R)-2-((5,5-dimethyl-8-(2-oxopyrrolidin-1-yl)-5H-chromeno[4,3-c]pyridin-3-yl)amino)-6,6a,7,8-tetrahydro-9H-pyrido[2,3-b]pyrrolo[1,2-d][1,4]oxazin-9-one]
> 1000 nM | 1 to 10 nM | CC1Oc2cc(N3CCCC3=O)ccc2-c2cnc(Nc3cncc(NC(=O)c4cccc(F)c4)c3)cc21 (centres unmarked) [Example 120, 3-fluoro-N-(5-((5-methyl-8-(2-oxopyrrolidin-1-yl)-5H-chromeno[4,3-c]pyridin-3-yl)amino)pyridin-3-yl)benzamide]
1 to 10 nM | ≤ 1 nM | CC1Oc2cc(N3CCCC3=O)ccc2-c2cnc(Nc3cncc(NC(=O)c4ccnc(N)c4)c3)cc21 (centres unmarked) [Example 115, 2-amino-N-(5-((5-methyl-8-(2-oxopyrrolidin-1-yl)-5H-chromeno[4,3-c]pyridin-3-yl)amino)pyridin-3-yl)isonicotinamide]
10 to 100 nM | 1 to 10 nM | COC(=O)Nc1cncc(Nc2cc3c(cn2)-c2ccc(N4CCCC4=O)cc2OC3C)c1 (centres unmarked) [Example 98, methyl (5-((5-methyl-8-(2-oxopyrrolidin-1-yl)-5H-chromeno[4,3-c]pyridin-3-yl)amino)pyridin-3-yl)carbamate]
1 to 10 nM | ≤ 1 nM | CC1Oc2cc(N3CCCC3=O)ccc2-c2cnc(Nc3cnc4c(c3)N3C(=O)OC[C@H]3CO4)cc21 (stereo partly drawn) [Example 158, (3aR)-8-((5-methyl-8-(2-oxopyrrolidin-1-yl)-5H-chromeno[4,3-c]pyridin-3-yl)amino)-3a,4-dihydro-1H,3H-oxazolo[3,4-d]pyrido[2,3-b][1,4]oxazin-1-one]
1 to 10 nM | ≤ 1 nM | CC1(C)Oc2cc(N3CCCC3=O)ccc2-c2cnc(Nc3cnc4c(c3)N3C(=O)CC[C@H]3CO4)nc21 [Example 189, (S)-2-((5,5-dimethyl-8-(2-oxopyrrolidin-1-yl)-5H-chromeno[3,4-d]pyrimidin-3-yl)amino)-6,6a,7,8-tetrahydro-9H-pyrido[2,3-b]pyrrolo[1,2-d][1,4]oxazin-9-one]
10 to 100 nM | 1 to 10 nM | CC1Oc2cc(N3CCCC3=O)ccc2-c2cnc(Nc3cncc(NC(=O)c4ccc(NC=O)c(O)c4)c3)cc21 (centres unmarked) [Example 109A, 4-formamido-3-hydroxy-N-(5-((5-methyl-8-(2-oxopyrrolidin-1-yl)-5H-chromeno[4,3-c]pyridin-3-yl)amino)pyridin-3-yl)benzamide]
1 to 10 nM | ≤ 1 nM | CC1Oc2cc(N3CCCC3=O)ccc2-c2cnc(Nc3cncc(N4CCN(Cc5cccc(NC(=O)CNC(=O)/C=C/CN(C)C)c5)C4=O)c3)cc21 (centres unmarked) [Example 178, (E)-4-(dimethylamino)-N-(2-((3-((3-(5-((5-methyl-8-(2-oxopyrrolidin-1-yl)-5H-chromeno[4,3-c]pyridin-3-yl)amino)pyridin-3-yl)-2-oxoimidazolidin-1-yl)methyl)phenyl)amino)-2-oxoethyl)but-2-enamide]
10 to 100 nM | 1 to 10 nM | CC1Oc2cc(N3CCCC3=O)ccc2-c2cnc(Nc3cncc(NC(=O)Nc4ccccn4)c3)cc21 (centres unmarked) [Example 102, 1-(5-((5-methyl-8-(2-oxopyrrolidin-1-yl)-5H-chromeno[4,3-c]pyridin-3-yl)amino)pyridin-3-yl)-3-(pyridin-2-yl)urea]
10 to 100 nM | 1 to 10 nM | CC1Oc2cc(N3CCCC3=O)ccc2-c2cnc(Nc3cncc(NC(=O)Cc4ccccc4)c3)cc21 (centres unmarked) [Example 107, N-(5-((5-methyl-8-(2-oxopyrrolidin-1-yl)-5H-chromeno[4,3-c]pyridin-3-yl)amino)pyridin-3-yl)-2-phenylacetamide]
